Measurements published in paper PMC10893103, “Cyclodextrin-Enabled Enantioselective Complexation Study of Cathinone Analogs” (Molecules, 2024).
Where two headings read alike, the source gives them in different places.

Columns and labels:
[1] = pKa determination by CE-pH titration; assay type: physicochemical; conditions: 25 mM Na2HPO4 / 25 mM Na2B4O7 buffers, pH 7–10, 25 °C
Excerpt: CE is a widely used technique for the analysis of charged compounds; thus, the acid-base properties and the pKa of the analyte are crucial in CE method development. Furthermore, the protonation state of compounds has a decisive influence on both their behavior in the body and their affinity for CDs. […] However, it has the disadvantage that its reproducibility is less than that of conventional pH potentiometry; thus, the results of CE-pH titration should be confirmed by independent method (potentiometry, NMR-pH titration).
In order to determine the pKa of the five cathinone analogs, CE-pH titration was applied, in which the purpose was to register the effective mobility changes as a function of pH. As the five tested compounds contain secondary or tertiary amino groups, the pH range tested was pH 7–10, applying Na2HPO4 -Na2B4O7 buffers, where the appropriate pH was adjusted with hydrochloric acid. At a given pH, the mobility is determined by the sum of the mobility of the protonated and deprotonated forms:(1) μpH=μLxL+μHLxHL=μL+μHLKH^+/1+KH^+ where the μpH is the mobility of the compound at the given pH; μL and μHL are the mobilities of the deprotonated and protonated forms, respectively; xL and xHL are the mole fractions of the deprotonated and protonated forms, respectively; and K is the protonation constant. Plotting the μpH data against pH gives the titration curves from which the protonation constant can be calculated according to Equation (1).

[2] = pKa determination by potentiometry; assay type: physicochemical; conditions: aqueous solution; I = 0.15 M KCl, 25.0 °C
Experimental: The protonation constants were confirmed by potentiometry using a GLpKa instrument (Sirius, Forest Row, UK) equipped with a combination Ag/AgCl pH electrode. The four-parameter technique (Four PlusTM method) was used for electrode calibration. The titrations were carried out at constant ionic strength (I = 0.15 M KCl) and temperature (T = 25.0 ± 0.5 °C) under a nitrogen atmosphere. An amount of 10 ml of a ~1 mM aqueous solution of the analytes (4-MEC, MDPV) was pre-acidified to pH 2.0 with 0.5 M HCl and then titrated with 0.5 M KOH to pH 12.2. Three parallel measurements were carried out. The pKa values were calculated using the RefinementProTM software (Sirius, Forest Row, UK).

[3] = CE-pH titration; cited from earlier work
[4] = Affinity capillary electrophoresis (ACE), pH 7.4; conditions: 30 mM phosphate buffer pH 7.4, 25 °C, 15 kV
Method in brief: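 Mobility-shift ACE of cathinone analogues with cyclodextrins (0.25–20 mM in BGE) in 30 mM phosphate pH 7.4, 25 °C, fused-silica capillary, 15 kV, UV 215 nm, DMSO as EOF marker. Mobilities obtained by HVL peak fitting; complex stability constants corrected for viscosity and ionic strength.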

[5] = Affinity capillary electrophoresis (ACE), pH 4.5; conditions: 20 mM acetate buffer pH 4.5, 25C, 15 kV
Excerpt: The simplest way to determine the mobility is from the migration times (tmax) read from the electropherograms from which the apparent mobility could be calculated, but more accurate mobility values could be obtained by the determination with the Haarhoff–van der Linde (HVL) function based on Equation (2). (2) HVLδ(t;a0,a1,a2,a3δ)=a0/a2a3δ2πexp[−1/2(t−a1/a2)^2]/1/exp(a3δ)−1+1/2[1+erf(t−a1/2a2)] where a0 is the area of the HVL function, a1 is the position of the Gaussian component, a2 is the standard deviation of the Gaussian component, and a3δ is the peak shape distortion. The application of the HVL function is necessary in the case of accurate ACE measurements because, in several cases, the peaks are distorted due to the complex formation, which makes reading the migration times and calculating the mobility more difficult and imprecise.
The most popular technique for quantifying the analyte–ligand interaction with CE is mobility shift ACE. This technique involves varying the background electrolyte’s ligand concentrations while introducing a constant volume of the analyte and an EOF marker into the capillary. The analyte–ligand equilibrium is assumed to happen before the separation is complete, requiring fast complex formation kinetics. Typical ligand concentrations are 1–2 orders of magnitude greater than the analyte. The following equation describes the observed mobility as a function of the interaction with the following analyte ligand:(3) μ=μfff+μcfc where μ is the observed mobility, μf and μc are the electrophoretic mobility of the free and complexed analyte, and ff and fc are the free and ligand-bound fractions of the analyte.
Assuming a 1:1 binding stoichiometry, the effective mobility (μeff, calculated by correcting with the EOF marker mobility) can be expressed as (4) μeff=μfK+μc[L]/K+[L] where K is the equilibrium dissociation constant and [L] is the ligand concentration. The apparent complex stability constant (K) can be calculated using several methods, e.g., the X-reciprocal method with linear fitting, but non-linear curve fitting based on Equation (4) is more accurate. A hyperbolic growing or decline curve is obtained, and K could be determined by plotting the effective mobility as a function of the [L] (e.g., CD concentration) in the background electrolyte. The CEval software enables faster and simpler evaluation of electropherograms and further data processing to determine the stability constants of complexes with a 1:1 stoichiometric ratio [27].
During the ACE measurement series, the CD concentration is increased whilst injecting a constant amount of the cathinone derivatives and the EOF marker DMSO. The complex stability calculations were conducted with the CEval program applying the HVL function to eliminate the effect of electromigration dispersion on migration time for exact mobility and, thus complex stability constant determination. Viscosity correction and ionic strength correction were applied. […]

Compound: CCNC(C)C(=O)c1ccc(C)cc1 (racemic) [4-MEC, (±)-2-(ethylamino)-1-(4-methylphenyl)propan-1-one]
- pKa [1]: 8.81 ± 0.02
- pKa [2]: 8.85 ± 0.04

Compound: CNC(C)C(=O)c1ccc(F)cc1 (racemic) [Flephedrone, (±)-1-(4-fluorophenyl)-2-(methylamino)propan-1-one]
- pKa [1]: 8.56 ± 0.01

Compound: CCCC(C(=O)c1ccc2c(c1)OCO2)N1CCCC1 (racemic) [MDPV, (±)-1-(benzo[d]-[1, 3]-dioxol-5-yl)-2-(pyrrolidin-1-yl)pentan-1-one]
- pKa [1]: 9 ± 0.02
- pKa [2]: 9.05 ± 0.04
- pKa [3]: 9.13

Compound: CC(=O)O[C@@H]1[C@@H](OC(C)=O)[C@H]2O[C@H]3[C@H](OC(C)=O)[C@@H](OC(C)=O)[C@@H](O[C@H]4[C@H](OC(C)=O)[C@@H](OC(C)=O)[C@@H](O[C@H]5[C@H](OC(C)=O)[C@@H](OC(C)=O)[C@@H](O[C@H]6[C@H](OC(C)=O)[C@@H](OC(C)=O)[C@@H](O[C@H]7[C@H](OC(C)=O)[C@@H](OC(C)=O)[C@@H](O[C@H]8[C@H](OC(C)=O)[C@@H](OC(C)=O)[C@@H](O[C@@H]1[C@@H](COS(=O)(=O)O)O2)O[C@@H]8COS(=O)(=O)O)O[C@@H]7COS(=O)(=O)O)O[C@@H]6COS(=O)(=O)O)O[C@@H]5COS(=O)(=O)O)O[C@@H]4COS(=O)(=O)O)O[C@@H]3COS(=O)(=O)O [HDAS-β-CD, heptakis-(2,3-O-diacethyl, 6-O-sulfo)-β-CD]
- 4-MEC–CD complex stability constant, Kstab2 (second migrating enantiomer) [4]: 830 ± 45 M⁻¹
- 4-MEC–CD complex stability constant, Kstab/Kstab1 (unresolved or first migrating enantiomer) [4]: 560 ± 40 M⁻¹
- Butylone–CD complex stability constant, Kstab/Kstab1 (unresolved or first migrating enantiomer) [4]: 725 ± 20 M⁻¹
- Flephedrone–CD complex stability constant, Kstab2 (second migrating enantiomer) [4]: 360 ± 75 M⁻¹
- Flephedrone–CD complex stability constant, Kstab/Kstab1 (unresolved or first migrating enantiomer) [4]: 110 ± 37 M⁻¹
- MDPV–CD complex stability constant, Kstab2 (second migrating enantiomer) [4]: 340 ± 30 M⁻¹
- MDPV–CD complex stability constant, Kstab/Kstab1 (unresolved or first migrating enantiomer) [4]: 360 ± 55 M⁻¹
- Mephedrone–CD complex stability constant, Kstab2 (second migrating enantiomer) [4]: 730 ± 40 M⁻¹
- Mephedrone–CD complex stability constant, Kstab/Kstab1 (unresolved or first migrating enantiomer) [4]: 450 ± 60 M⁻¹
- Flephedrone–CD complex stability constant Kstab1 (first migrating enantiomer) [5]: 470 ± 40 M⁻¹
- Flephedrone–CD complex stability constant, Kstab2 (second migrating enantiomer) [5]: 660 ± 55 M⁻¹
- MDPV–CD complex stability constant Kstab1 (first migrating enantiomer) [5]: 800 ± 50 M⁻¹
- MDPV–CD complex stability constant, Kstab2 (second migrating enantiomer) [5]: 960 ± 80 M⁻¹

Compound: CNC(C)C(=O)c1ccc(C)cc1 (racemic) [Mephedrone, (±)-2-(methylamino)-1-(4-methylphenyl)propan-1-one]
- pKa [1]: 8.61 ± 0.01
- pKa [3]: 8.82

Compound: CCC(NC)C(=O)c1ccc2c(c1)OCO2 (racemic) [Butylone, (±)-1-(1,3-benzodioxol-5-yl)-2-(methylamino)-butan-1-one]
- pKa [1]: 8.64 ± 0.01

Compound: CO[C@@H]1[C@@H](OC)[C@H]2O[C@H]3[C@H](OC)[C@@H](OC)[C@@H](O[C@H]4[C@H](OC)[C@@H](OC)[C@@H](O[C@H]5[C@H](OC)[C@@H](OC)[C@@H](O[C@H]6[C@H](OC)[C@@H](OC)[C@@H](O[C@H]7[C@H](OC)[C@@H](OC)[C@@H](O[C@H]8[C@H](OC)[C@@H](OC)[C@@H](O[C@@H]1[C@@H](COS(=O)(=O)O)O2)O[C@@H]8COS(=O)(=O)O)O[C@@H]7COS(=O)(=O)O)O[C@@H]6COS(=O)(=O)O)O[C@@H]5COS(=O)(=O)O)O[C@@H]4COS(=O)(=O)O)O[C@@H]3COS(=O)(=O)O [HDMS-β-CD, heptakis-(2,3-O-dimethyl, 6-O-sulfo)-β-CD]
- MDPV–CD complex stability constant, Kstab/Kstab1 (unresolved or first migrating enantiomer) [4]: 915 ± 265 M⁻¹
- 4-MEC–CD complex stability constant Kstab1 (first migrating enantiomer) [5]: 170 ± 15 M⁻¹
- 4-MEC–CD complex stability constant, Kstab2 (second migrating enantiomer) [5]: 190 ± 15 M⁻¹
- Butylone–CD complex stability constant Kstab1 (first migrating enantiomer) [5]: 150 ± 10 M⁻¹
- Butylone–CD complex stability constant, Kstab2 (second migrating enantiomer) [5]: 180 ± 12 M⁻¹
- Flephedrone–CD complex stability constant Kstab1 (first migrating enantiomer) [5]: 250 ± 7 M⁻¹
- Flephedrone–CD complex stability constant, Kstab2 (second migrating enantiomer) [5]: 235 ± 20 M⁻¹
- MDPV–CD complex stability constant Kstab1 (first migrating enantiomer) [5]: 160 ± 15 M⁻¹
- MDPV–CD complex stability constant, Kstab2 (second migrating enantiomer) [5]: 175 ± 12 M⁻¹
- Mephedrone–CD complex stability constant Kstab1 (first migrating enantiomer) [5]: 205 ± 20 M⁻¹
- Mephedrone–CD complex stability constant, Kstab2 (second migrating enantiomer) [5]: 205 ± 15 M⁻¹

Compound: O=S(=O)(O)OC[C@H]1O[C@@H]2O[C@H]3[C@H](O)[C@@H](O)[C@@H](O[C@H]4[C@H](O)[C@@H](O)[C@@H](O[C@H]5[C@H](O)[C@@H](O)[C@@H](O[C@H]6[C@H](O)[C@@H](O)[C@@H](O[C@H]7[C@H](O)[C@@H](O)[C@@H](O[C@H]8[C@H](O)[C@@H](O)[C@@H](O[C@H]1[C@H](O)[C@H]2O)O[C@@H]8COS(=O)(=O)O)O[C@@H]7COS(=O)(=O)O)O[C@@H]6COS(=O)(=O)O)O[C@@H]5COS(=O)(=O)O)O[C@@H]4COS(=O)(=O)O)O[C@@H]3COS(=O)(=O)O [HS-β-CD, heptakis-(6-O-sulfo)-β-CD]
- Flephedrone–CD complex stability constant, Kstab2 (second migrating enantiomer) [4]: 470 ± 65 M⁻¹
- Flephedrone–CD complex stability constant, Kstab/Kstab1 (unresolved or first migrating enantiomer) [4]: 580 ± 14 M⁻¹
- Flephedrone–CD complex stability constant Kstab1 (first migrating enantiomer) [5]: 635 ± 35 M⁻¹
- Flephedrone–CD complex stability constant, Kstab2 (second migrating enantiomer) [5]: 615 ± 30 M⁻¹
- MDPV–CD complex stability constant Kstab1 (first migrating enantiomer) [5]: 500 ± 45 M⁻¹

Compound: sulfated-γ-CD [S-γ-CD]
- 4-MEC–CD complex stability constant, Kstab/Kstab1 (unresolved or first migrating enantiomer) [4]: 290 ± 30 M⁻¹
- Butylone–CD complex stability constant, Kstab/Kstab1 (unresolved or first migrating enantiomer) [4]: 960 ± 95 M⁻¹
- MDPV–CD complex stability constant, Kstab/Kstab1 (unresolved or first migrating enantiomer) [4]: 250 ± 55 M⁻¹
- Mephedrone–CD complex stability constant, Kstab/Kstab1 (unresolved or first migrating enantiomer) [4]: 160 ± 15 M⁻¹
